Holding throughout (assay): receptor-mediated PP2C (HAB1) inhibition in vitro assay
What all share (assay type): biochemical

Test [1] concerns the target T1, PYL3 (Arabidopsis thaliana, UniProt Q9SSM7).
T1 construct: 6X-His; made in house; host or cells: E. coli BL21[DE3]pLysS
T1 sequence (Q9SSM7 1-209): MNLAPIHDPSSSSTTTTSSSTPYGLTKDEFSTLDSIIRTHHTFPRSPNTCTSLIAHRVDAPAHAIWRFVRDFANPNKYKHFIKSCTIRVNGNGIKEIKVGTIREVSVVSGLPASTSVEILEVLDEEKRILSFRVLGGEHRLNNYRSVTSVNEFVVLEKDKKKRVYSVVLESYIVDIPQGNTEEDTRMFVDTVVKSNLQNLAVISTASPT
T1 sequence (Q9CAJ0 23-511 partner): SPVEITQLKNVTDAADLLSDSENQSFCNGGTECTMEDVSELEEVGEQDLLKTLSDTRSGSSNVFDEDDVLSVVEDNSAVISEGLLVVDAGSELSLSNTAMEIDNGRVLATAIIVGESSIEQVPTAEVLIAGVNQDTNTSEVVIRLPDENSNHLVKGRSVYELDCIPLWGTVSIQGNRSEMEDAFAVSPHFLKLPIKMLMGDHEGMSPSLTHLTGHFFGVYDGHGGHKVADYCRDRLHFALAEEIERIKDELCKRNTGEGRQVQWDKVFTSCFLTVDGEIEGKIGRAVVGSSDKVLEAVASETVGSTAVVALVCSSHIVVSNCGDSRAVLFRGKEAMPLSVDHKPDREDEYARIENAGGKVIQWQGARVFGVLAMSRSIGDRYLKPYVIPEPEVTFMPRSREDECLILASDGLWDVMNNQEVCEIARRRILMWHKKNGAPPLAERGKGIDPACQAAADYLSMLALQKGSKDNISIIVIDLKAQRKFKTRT
Conditions: for remaining activity at 50 µM: 50 uM of the test compound. Summed up: (§1)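 His-tagged receptors (MBP fusion for PYL11) at 2:1 ratio to 50 nM GST-HAB1 in 100 mM Tris-OAc pH 7.9, 100 mM NaCl, 1 mM MnCl2; 4-methylumbelliferyl-phosphate fluorogenic substrate. Compounds at 50 uM (ABA 10 uM); IC50 from dose curves for selected compounds.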

For test [2], the target named is T2, PYL9 (Arabidopsis thaliana, UniProt Q84MC7).
T2 construct: 6X-His; made in house; host or cells: E. coli BL21[DE3]pLysS
T2 sequence (Q84MC7 1-187): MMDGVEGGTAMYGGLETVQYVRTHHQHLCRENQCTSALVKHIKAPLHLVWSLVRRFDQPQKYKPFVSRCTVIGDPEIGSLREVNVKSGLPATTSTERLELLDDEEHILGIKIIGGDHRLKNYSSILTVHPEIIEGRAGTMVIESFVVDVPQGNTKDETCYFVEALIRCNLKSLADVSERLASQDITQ
T2 sequence (Q9CAJ0 23-511 partner): T1 sequence (Q9CAJ0 23-511 partner)
Conditions: for remaining activity at 25 µM: compound at 25 μM, control without agonist = 100%; for remaining activity at 50 µM: 50 uM of the test compound. Summed up:
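Fluorogenic readout: 4-methylumbelliferyl-phosphate hydrolysis by 50 nM GST-HAB1 plus 2:1 His-receptor; Tris-OAc pH 7.9, NaCl, 1 mM MnCl2, β-ME. Compounds at 25 μM or 50 uM single dose; IC50 from dose curves for selected compounds.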

The target in test [3] is T3, PYL5 (Arabidopsis thaliana, UniProt Q9FLB1).
T3 construct: 6X-His; made in house; host or cells: E. coli BL21[DE3]pLysS
T3 sequence (Q9FLB1 1-203): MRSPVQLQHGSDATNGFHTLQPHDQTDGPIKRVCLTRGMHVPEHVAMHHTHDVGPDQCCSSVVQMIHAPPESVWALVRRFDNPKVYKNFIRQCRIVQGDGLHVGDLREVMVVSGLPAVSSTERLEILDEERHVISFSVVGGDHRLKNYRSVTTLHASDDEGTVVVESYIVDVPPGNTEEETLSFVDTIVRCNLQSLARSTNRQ
T3 sequence (Q9CAJ0 23-511 partner): T1 sequence (Q9CAJ0 23-511 partner)
The settings on record: for remaining activity at 25 µM: compound at 25 μM, control without agonist = 100%; for remaining activity at 50 µM: 50 uM of the test compound. The method, boiled down: (§2)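 Compounds, tested at 25 μM or 50 uM with ABA at 10 uM, were incubated with recombinant receptor and 50 nM GST-HAB1 (2:1 ratio) in MnCl2-containing Tris-OAc buffer, pH 7.9. Phosphatase activity was followed by 4-methylumbelliferyl-phosphate fluorescence.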

The target in test [4] is T4, PYL2 (Arabidopsis thaliana, UniProt O80992).
T4 construct: 6X-His; made in house; host or cells: E. coli BL21[DE3]pLysS
T4 sequence (O80992 1-190): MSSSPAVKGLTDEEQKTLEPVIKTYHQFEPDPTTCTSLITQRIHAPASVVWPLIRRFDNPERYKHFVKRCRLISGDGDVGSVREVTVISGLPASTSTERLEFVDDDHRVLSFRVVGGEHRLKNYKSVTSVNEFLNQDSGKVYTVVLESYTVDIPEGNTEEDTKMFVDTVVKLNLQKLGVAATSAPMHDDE
T4 sequence (Q9CAJ0 23-511 partner): T1 sequence (Q9CAJ0 23-511 partner)
Conditions: for remaining activity at 50 µM: 50 uM of the test compound. Summed up: as §1

For test [5], the target named is T5, PYL10 (Arabidopsis thaliana, UniProt Q8H1R0).
T5 construct: 6X-His; made in house; host or cells: E. coli BL21[DE3]pLysS
T5 sequence (Q8H1R0 1-183): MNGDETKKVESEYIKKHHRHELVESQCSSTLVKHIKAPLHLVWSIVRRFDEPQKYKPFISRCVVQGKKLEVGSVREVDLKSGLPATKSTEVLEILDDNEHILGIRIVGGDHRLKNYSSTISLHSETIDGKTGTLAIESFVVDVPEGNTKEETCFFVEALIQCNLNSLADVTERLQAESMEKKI
T5 sequence (Q9CAJ0 23-511 partner): T1 sequence (Q9CAJ0 23-511 partner)
The settings on record: for remaining activity at 50 µM: 50 uM of the test compound. Summed up: as §1

In test [6] the target is T6, PYL11 (Arabidopsis thaliana, UniProt Q9FJ50).
T6 construct: made in house; host or cells: E. coli BL21[DE3]pLysS
T6 sequence (Q9FJ50 1-161): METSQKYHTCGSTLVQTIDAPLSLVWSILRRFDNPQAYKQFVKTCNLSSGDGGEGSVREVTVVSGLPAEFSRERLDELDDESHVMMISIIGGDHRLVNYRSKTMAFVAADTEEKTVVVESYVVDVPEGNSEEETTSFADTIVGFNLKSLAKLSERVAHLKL
T6 sequence (Q9CAJ0 23-511 partner): T1 sequence (Q9CAJ0 23-511 partner)
Conditions: for remaining activity at 50 µM: 50 uM of the test compound. Summed up: as §2

Where [7] appears, read: Table VII, read-out: PP2C Dose Curves PYL3 (IC50).
Setting [8] is: Table VII, read-out: PP2C Dose Curves PYL9 (IC50).
Setting [9] is: Table VII, read-out: PP2C Dose Curves PYL5 (IC50).
Where [10] appears, read: Table VII, read-out: PP2C Dose Curves PYL2 (IC50).
The mark [11] stands for this setting: Table VII, read-out: PP2C Dose Curves PYL10 (IC50).
Setting [12] is: Table VII, read-out: PP2C Dose Curves PYL11 (IC50).
[13] abbreviates: Table XII-B, calculated from dose curves, read-out: PP2C Activity (IC50 in uM) PYL3.
The mark [14] stands for this setting: Table XII-B, calculated from dose curves, read-out: PP2C Activity (IC50 in uM) PYL9.
[15] abbreviates: Table XII-B, calculated from dose curves, read-out: PP2C Activity (IC50 in uM) PYL5.
Where [16] appears, read: Table XII-B, calculated from dose curves, read-out: PP2C Activity (IC50 in uM) PYL2.
The mark [17] stands for this setting: Table XII-B, calculated from dose curves, read-out: PP2C Activity (IC50 in uM) PYL11.

Results on 5 compounds are retold here after patent publication US10757937B2, “Sulfonamides that activate ABA receptors” (The Regents of the University of California, priority 2014, dated 2020).

Like-named read-outs stand apart in the source and are kept apart here.

As a reminder, the IC50 is the concentration that inhibits the measured activity by half. With `CC(C)(C(=O)NS(=O)(=O)Cc1ccc(C#N)cc1)c1cccc(C#N)c1` [Compound 18], the IC50 in test [1] (setting [7]) was > 50 µM; in test [2] (setting [8]), 8.29 µM; in test [3] (setting [9]), 1.95 µM; in test [4] (setting [10]), > 50 µM; in test [5] (setting [11]) it was 31.5 µM; in test [6] (setting [12]), 14.9 µM. In addition, the results for the remaining activity at 25 µM in test [2] and in test [3] were 34% and 12%, respectively.
As to `N#Cc1ccc(CS(=O)(=O)NC(=O)C2(c3cccc(C#N)c3)CC2)cc1` [Compound 50], the IC50 in test [1] (setting [7]) was 20.8 µM; in test [2] (setting [8]) it was 5.76 µM; in test [3] (setting [9]), 0.39 µM; in test [4] (setting [10]), 54.7 µM; in test [5] (setting [11]), > 50 µM; in test [6] (setting [12]), 2.52 µM. The remaining activity at 25 µM in test [2] is 18%; in test [3], 7%. Besides, in test [3] (compounds with cyclopropyl rings at alpha carbon), the “PYL5 agonist potency and selectivity” value is “potent and relatively selective PYL5 agonists”.
On to `CC1=CC(=O)CC(C)(C)[C@@]1(O)/C=C/C(C)=C\C(=O)O` [ABA, Abscisic acid, reference compound], for which the “PP2C Activity PYL3” value in test [1] (ABA (10 μM)) amounted to 5.4. Further, the “PP2C Activity PYL9” value in test [2] (ABA (10 μM)) is listed as 6.3. Besides, the “PP2C Activity PYL5” value in test [3] (ABA (10 μM)) is listed as 4.9. Besides, the “PP2C Activity PYL2” value in test [4] (ABA (10 μM)) is 6.1. Besides, the “PP2C Activity PYL10” value in test [5] (ABA (10 μM)) stood at 13.8. Also, in test [6] (ABA (10 μM)), the “PP2C Activity PYL11” value was determined as 5.7.
Take `CC1CCC(C(=O)NS(=O)(=O)Cc2ccc(C#N)cc2)(c2ccc(F)cc2)CC1` (stereo not shown) [Compound 67, N-[(4-Cyanophenyl)methanesulfonyl]-1-(4-fluorophenyl)-4-methylcyclohexane-1-carboxamide]: the remaining activity at 50 µM stood at 101% in test [1]; 8% in test [2]; 43% in test [3]; 93% in test [4]; 48.2% in test [5]; 14.7% in test [6]. Besides, the IC50 was > 50 µM in test [1] (setting [13]); 2.13 µM in test [2] (setting [14]); 25.3 µM in test [3] (setting [15]); > 50 µM in test [4] (setting [16]); 3.13 µM in test [6] (setting [17]).
`O=C(NS(=O)(=O)Cc1ccc(F)cc1)C1(c2ccccc2)CCCCC1` [Compound 64]: the remaining activity at 50 µM is 97.4% in test [1]; 91.1% in test [2]; 103% in test [3]; 107% in test [4]; 89.8% in test [5]; 97.5% in test [6]. In addition, the IC50 in test [1] (setting [13]) is > 50 µM; in test [2] (setting [14]) it was > 50 µM; in test [3] (setting [15]), > 50 µM; in test [4] (setting [16]), > 50 µM; in test [5] (Table XII-B, calculated from dose curves, read-out: PP2C Activity (IC50 in uM) PYL10) it was > 50 µM; in test [6] (setting [17]), > 50 µM.
